The record followed here is patent US20210078972A1, “QUINOLINE OR QUINAZOLINE COMPOUND AND APPLICATION THEREOF” (HAIHE BIOPHARMA CO., LTD., priority 2018, published 2021).

Each structure is given as a SMILES string.

One data set has as its system MV4-11 cells. Description: MV4-11 cell proliferation, CCK-8. Type of data set: cell-based. As to conditions: Homo sapiens, 72 h, read-out: IC50 of inhibition of proliferation of MV4-11 cells. The protocol:
The inhibitory effects of the compounds on the proliferation of MV4-11 cells were detected by a CCK-8 cell counting kit (Dojindo). The specific steps are as follows: MV4-11 cells in the logarithmic phase were seeded into a 96-well culture plate at a suitable density for 90 μL per well. After overnight cultivation, the compounds at different concentrations were added to act for 72 hr, and a solvent control group was set (negative control). After 72 h of the compounds acting on the cells, the effects of the compounds on cell proliferation were detected using the CCK-8 cell counting kit (Dojindo). 10 μL of CCK-8 reagent was added to each well and the plate was placed in an incubator at 37° C. for 2-4 hours. After that, a full-wavelength microplate enzyme-labeling instrument SpectraMax 190 was used to read with a measurement wavelength of 450 nm.
The inhibition rate (%) of the compound on tumor cell growth was calculated by the following formula:
Inhibition rate (%)=(OD control well−OD administration well)/OD control well×100%
The IC50 values were obtained by regression with the four-parameter method using the software attached to the enzyme-labeling instrument.

Data set [1] deals with Mixed primary male CD-1 mouse hepatocytes. Description: Metabolism in mouse hepatocytes, UPLC-UV/Q-TOF MS. Type of data set: in vitro ADME. As to conditions: 180 min. The protocol: In this example, a UPLC-UV/Q-TOF MS method was used to evaluate the differences in the metabolic processes of TL134 in hepatocytes of five species of human, monkey, canine, rat, and mouse. It provides a reference for the selection of preclinical pharmacokinetics and studies on animal species safety evaluation.
The total volume of each incubation sample was 100 μL, the medium was WME medium (pH 7.4), and the incubation sample included hepatocytes with a cell density of 1.0×10^6 cells/mL and TL134 with a final concentration of 3.0 μM; the negative control sample was incubated with thermal-inactivated mixed hepatocytes (without cell counting) of five species of animals and TL134, and the buffer control sample was incubated with WME medium and TL134. All samples were incubated at 37° C. for 180 min, and then 100 μL of ice-cold acetonitrile was added to stop the reaction. The samples were stored at −70° C. for ready to be tested, and all incubation samples were double samples.
Triple TOF 5600′ quadrupole-time-of-flight tandem mass spectrometer (Q-TOF MS), equipped with electrospray ionization source (ESI source) and CDS automatic calibration system, AB SCIEX Company, USA; Acquity UPLC liquid chromatography system, including binary infusion pump, autosampler, column oven, degasser and TUV ultraviolet detector, Waters Company, USA. […]

On to `COc1cc2c(Oc3ccc(NC(=O)c4c(C)n(C)c5ccc(OC(F)(F)F)cc5c4=O)cc3F)ncnc2cc1OCCCN1CCOCC1` [TL-134, N-(3-fluoro-4-((6-methoxy-7-(3-morpholinopropoxy)quinazolin-4-yl)oxy)phenyl)-1,2-dim ethyl-4-oxo-6-(trifluoromethoxy)-1,4-dihydroquinoline-3-carboxamide], for which, in the data set with MV4-11 cells, the IC50 is less than 0.4 nM. The “prototype drug metabolized, judging from the UV chromatographic peak areas” value in data set [1] was roughly 3.0%.
